Seven molecules from ChEMBL document CHEMBL1150917, “Chemical constituents from Cassytha filiformis II” (1998) can be followed below.

The test system of assay [1] is Platelet. The assay can be described thus: Inhibition of arachidonic acid-induced platelet aggregation in rabbit platelet at 100 uM relative to control. The assay is classed as functional, Oryctolagus cuniculus. Details: scale not given: the % may be the effect or the level left.
Assay [2] has as its system Platelet. The assay can be described thus: Inhibition of collagen-induced platelet aggregation in rabbit platelet at 100 uM relative to control. It counts as functional, Oryctolagus cuniculus. Details: scale not given: the % may be the effect or the level left.
For assay [3], the system named is Platelet. The assay can be described thus: Inhibition of PAF-induced platelet aggregation in rabbit platelet at 100 uM relative to control. It counts as functional, Oryctolagus cuniculus. Details: scale not given: the % may be the effect or the level left.
Assay [4] deals with Platelet. Put plainly: Inhibition of ADP-induced platelet aggregation in rabbit platelet at 50 uM relative to control. It counts as functional, cell-based. The conditions noted are these: Oryctolagus cuniculus.
Assay [5] concerns Platelet. The assay can be described thus: Inhibition of arachidonic acid-induced platelet aggregation in rabbit platelet at 50 uM relative to control. It counts as functional, cell-based. The conditions noted are these: Oryctolagus cuniculus.
Assay [6] concerns Platelet. The assay can be described thus: Inhibition of collagen-induced platelet aggregation in rabbit platelet at 50 uM relative to control. It counts as functional, cell-based. Particulars: Oryctolagus cuniculus.
For assay [7], the system named is Platelet. Put plainly: Inhibition of PAF-induced platelet aggregation in rabbit platelet at 50 uM relative to control. It counts as functional, cell-based. Particulars: Oryctolagus cuniculus.
For assay [8], the system named is Platelet. The assay can be described thus: Inhibition of ADP-induced platelet aggregation in rabbit platelet at 100 uM relative to control. The assay is classed as functional, Oryctolagus cuniculus. Details: scale not given: the % may be the effect or the level left.
The test system of assay [9] is Platelet. The assay can be described thus: Inhibition of arachidonic acid-induced platelet aggregation in rabbit platelet at 20 uM relative to control. The conditions noted are these: Oryctolagus cuniculus. It counts as functional, cell-based.
For assay [10], the system named is Platelet. Put plainly: Inhibition of ADP-induced platelet aggregation in rabbit platelet at 25 uM relative to control. It counts as functional, Oryctolagus cuniculus. Also noted: scale not given: the % may be the effect or the level left.
The subject of assay [11] is Platelet. The assay can be described thus: Inhibition of arachidonic acid-induced platelet aggregation in rabbit platelet at 25 uM relative to control. It counts as functional, Oryctolagus cuniculus. Also noted: scale not given: the % may be the effect or the level left.
For assay [12], the system named is Platelet. Put plainly: Inhibition of collagen-induced platelet aggregation in rabbit platelet at 25 uM relative to control. The assay is classed as functional, Oryctolagus cuniculus. Also noted: scale not given: the % may be the effect or the level left.
The subject of assay [13] is Platelet. Put plainly: Inhibition of PAF-induced platelet aggregation in rabbit platelet at 25 uM relative to control. It counts as functional, Oryctolagus cuniculus. Details: scale not given: the % may be the effect or the level left.

Molecules are shown by their SMILES. Active and inactive are the calls of the source. The rule behind the calls is not given here.

As for `COC(=O)N1CCc2c(OC)c3c(c4c2[C@@H]1Cc1cc(O)c(OC)cc1-4)OCO3` [CATHAFORMINE], the Activity in the assay on Platelet [1] worked out at 0%; in the assay on Platelet [2] it was 7.6%; in the assay with Platelet [3] it was 61.5%. Moreover, the result with Platelet [4], in the assay on Platelet [5], with Platelet [6] and in the assay with Platelet [7] was Active.

For the molecule `COc1cc2c(cc1OC)-c1c3c(c(OC)c4c1[C@H](C2)N(C)CC4)OCO3` [OCOTEINE], the Activity was 0% in the assay with Platelet [1], 0% in the assay with Platelet [2] and 87.7% with Platelet [3].

On to `COc1cc2c(cc1O)C[C@@H]1NCCc3cc4c(c-2c31)OCO4` [ACTINODAPHNINE], for which the Activity in the assay on Platelet [8], in the assay on Platelet [1], in the assay on Platelet [2] and in the assay with Platelet [3] was 0% throughout. For the same molecule, the result in the assay on Platelet [4], in the assay with Platelet [5], in the assay with Platelet [6] and in the assay with Platelet [7] was Active.

The molecule `COC(=O)N1CCc2cc3c(c4c2[C@@H]1Cc1cc(O)c(OC)cc1-4)OCO3` [CATHAFILINE] registered an Activity in the assay on Platelet [1] of 0%. The result in the assay on Platelet [4], in the assay on Platelet [5], in the assay with Platelet [6] and with Platelet [7] was Active.

Turning to `COc1cc2c(cc1O)C[C@H]1c3c(cc4c(c3-2)OCO4)CCN1C` [CASSYTHICINE], the Activity came to 0% with Platelet [8], 0% in the assay with Platelet [1], 0% in the assay on Platelet [2] and 68.1% with Platelet [3]. The result in the assay on Platelet [9] was Active.

In the case of `COc1cc2c(cc1OC)-c1c(OC)c(O)cc3c1[C@H](C2)N(C)CC3` [PREDICENTRINE], the Activity came out at 0% in the assay with Platelet [1], 0% with Platelet [2] and 74% with Platelet [3].

On to `CC(=O)Oc1ccccc1C(=O)O` [ASPIRIN], for which the Activity in the assay with Platelet [10] is listed as 77.9%; in the assay with Platelet [11], 0%; with Platelet [12], 87.8%; in the assay with Platelet [13], 90.5%.
